Results from ChEMBL document CHEMBL1201862, “PubChem BioAssay data set” (2004).
Active and inactive are the calls of the source.

How the values were obtained:
[1] = molecular target: T1, Polyadenylate-binding protein 1 (Homo sapiens, UniProt P11940); experiment: PABP1 MLLE–PAM2 binding inhibitor potency, dose response, biochemical, fluorescence polarization, FITC-PAM2 peptide (AID 602259); format: functional; details: read-out: IC50_Mean
[2] = molecular target: T1, Polyadenylate-binding protein 1; experiment: PABP1 MLLE–PAM2 interaction inhibitors, dose response, miRNA deadenylation inhibitor project, biochemical, fluorescence polarization, Cy5-PAM2 peptide, secondary (AID 602260); format: functional; details: read-out: IC50_Mean
[3] = growth suppression of PTEN-null colon cells, dose response, cell-based, HCT116 PTEN knockout (AID 1047); format: functional;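 note: HCT116 colon tumor cells with PTEN knocked out; cells exposed to compound for 60 hours before readout; potency for loss of cell viability measured by luminescence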
[4] = growth suppression of beta-catenin-knockout colon cells, dose response, cell-based, HCT116, human colon tumor (AID 1045); format: functional;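 note: HCT116 colon tumor cells with beta catenin knocked out; cells exposed to compound for 60 hours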
H9c2 = experiment: cells; format: functional, cell-based; details: Rattus norvegicus, H9c2, Myocardium;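 note: confirmatory concentration-response retest of ultra-high-throughput screening hits for modulation of myocardial damage; cell death induced by hydrogen peroxide oxidative stress; compound pretreatment for 60 min then peroxide exposure for 2 h; potency is for protecting the cells against peroxide damage rather than for killing them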
Cytochrome P450 2D6 = Cytochrome P450 2D6 (Homo sapiens, UniProt P10635);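 note: CYP2D6 member of a cytochrome P450 panel assay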
Cytochrome P450 2C9 = Cytochrome P450 2C9 (Homo sapiens, UniProt P11712)
Cytochrome P450 3A4 = Cytochrome P450 3A4 (Homo sapiens, UniProt P08684);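 note: CYP3A4 tested as one member of a cytochrome P450 panel screen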
Protein RecA = molecular target: T2, Protein RecA (Mycobacterium tuberculosis, UniProt P9WHJ3); experiment: Fluorescence Cell-Free Homogeneous Dose Retest to Identify Inhibitors of RecA-Intein Splicing Activity. [Related pubchem assays (depositor defined):AID2097, AID2223, AID489010, AID492950]; format: functional
T2 sequence (P9WHJ3 whole entry): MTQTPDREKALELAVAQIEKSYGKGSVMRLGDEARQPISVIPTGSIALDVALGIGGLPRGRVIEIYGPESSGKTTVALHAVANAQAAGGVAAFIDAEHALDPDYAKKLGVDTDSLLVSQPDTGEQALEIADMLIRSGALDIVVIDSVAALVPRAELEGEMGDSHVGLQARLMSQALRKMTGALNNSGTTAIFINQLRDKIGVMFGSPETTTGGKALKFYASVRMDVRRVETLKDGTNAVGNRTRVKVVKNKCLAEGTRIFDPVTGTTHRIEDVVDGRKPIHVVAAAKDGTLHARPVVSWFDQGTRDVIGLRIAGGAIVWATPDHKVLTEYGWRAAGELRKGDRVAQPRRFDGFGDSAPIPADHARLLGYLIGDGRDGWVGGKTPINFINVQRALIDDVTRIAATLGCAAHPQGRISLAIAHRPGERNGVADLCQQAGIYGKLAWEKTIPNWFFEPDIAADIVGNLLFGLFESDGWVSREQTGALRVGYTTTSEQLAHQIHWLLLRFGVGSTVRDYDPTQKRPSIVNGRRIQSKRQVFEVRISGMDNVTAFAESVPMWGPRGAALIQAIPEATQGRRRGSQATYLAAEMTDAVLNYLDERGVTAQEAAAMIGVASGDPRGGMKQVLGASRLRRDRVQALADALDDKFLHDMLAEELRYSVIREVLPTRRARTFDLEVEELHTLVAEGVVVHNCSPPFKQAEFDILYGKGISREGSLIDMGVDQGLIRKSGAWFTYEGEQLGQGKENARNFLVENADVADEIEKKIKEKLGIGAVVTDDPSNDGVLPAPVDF

[5] = molecular target: T3, Replicative DNA helicase DnaB (Mycobacterium tuberculosis, UniProt P9WMR3); experiment: DnaB intein splicing inhibitors, dose response, biochemical, cell-free fluorescence (AID 449749); format: functional
T3 sequence (P9WMR3 whole entry): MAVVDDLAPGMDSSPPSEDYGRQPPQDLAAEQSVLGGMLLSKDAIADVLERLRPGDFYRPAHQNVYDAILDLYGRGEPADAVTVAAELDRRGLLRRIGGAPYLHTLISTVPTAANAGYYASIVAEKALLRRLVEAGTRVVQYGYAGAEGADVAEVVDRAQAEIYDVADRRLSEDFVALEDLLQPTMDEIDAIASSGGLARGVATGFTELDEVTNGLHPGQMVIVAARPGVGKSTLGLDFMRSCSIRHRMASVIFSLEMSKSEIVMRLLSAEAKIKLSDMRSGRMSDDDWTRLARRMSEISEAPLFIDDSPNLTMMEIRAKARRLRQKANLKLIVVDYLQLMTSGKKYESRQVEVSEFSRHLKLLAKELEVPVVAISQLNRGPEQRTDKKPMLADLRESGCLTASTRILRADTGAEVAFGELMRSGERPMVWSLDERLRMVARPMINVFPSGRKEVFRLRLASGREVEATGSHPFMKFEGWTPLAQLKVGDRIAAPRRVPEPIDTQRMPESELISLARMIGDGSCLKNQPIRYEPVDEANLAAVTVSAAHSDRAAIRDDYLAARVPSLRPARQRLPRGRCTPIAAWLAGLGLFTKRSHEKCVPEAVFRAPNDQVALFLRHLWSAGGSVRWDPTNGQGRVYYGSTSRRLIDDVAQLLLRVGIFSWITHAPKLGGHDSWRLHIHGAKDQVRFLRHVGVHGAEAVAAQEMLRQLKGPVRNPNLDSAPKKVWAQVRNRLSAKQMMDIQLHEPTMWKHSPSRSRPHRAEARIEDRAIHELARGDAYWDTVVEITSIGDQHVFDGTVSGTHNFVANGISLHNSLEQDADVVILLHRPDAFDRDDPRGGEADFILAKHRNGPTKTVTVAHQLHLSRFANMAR

Cytochrome P450 2C19 = Cytochrome P450 2C19 (Homo sapiens, UniProt P33261); experiment: Cytochrome panel assay with activity outcomes. Panel member name: p450-cyp2c19 Compounds with AC50 equal or less than 10 uM are considered active; format: functional; details: read-out: AC50
[6] = cytotoxicity toward NIH3T3 fibroblasts, dose response, counter-screen, cell-based, ATP luminescence, mouse fibroblasts (AID 2010); format: functional;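 note: cells exposed to compound for about 90 hours before reading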
[7] = inhibitors of intracellular T. cruzi replication, confirmation, NIH3T3 host cells, beta-gal luminescence (AID 2044); format: functional, cell-based;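 note: intracellular parasites grown in NIH/3T3 mouse fibroblasts as host cells; luminescent beta-galactosidase reporter signal from transgenic T. cruzi replicating inside host cells; inhibitors lower the luminescence signal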
INS1 = experiment: beta cell apoptosis inhibitors, cytokine rescue, dose response, luminescence, retest (AID 449756); format: functional, cell-based; details: Rattus norvegicus;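 note: cell death triggered by IL-1 beta plus TNF-alpha plus IFN-gamma mixture; protective hits raise ATP signal compared with cytokine alone wells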
[8] = NIH-3T3 fibroblast cytotoxicity, dose response, cytotoxicity control, cell-based, fluorescence, Alamar Blue, secondary assay (AID 2327); format: functional;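 note: NIH-3T3 mouse fibroblasts cultured with fluconazole at 8 µg/mL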

Sequence of Cytochrome P450 2D6 (P10635 whole entry): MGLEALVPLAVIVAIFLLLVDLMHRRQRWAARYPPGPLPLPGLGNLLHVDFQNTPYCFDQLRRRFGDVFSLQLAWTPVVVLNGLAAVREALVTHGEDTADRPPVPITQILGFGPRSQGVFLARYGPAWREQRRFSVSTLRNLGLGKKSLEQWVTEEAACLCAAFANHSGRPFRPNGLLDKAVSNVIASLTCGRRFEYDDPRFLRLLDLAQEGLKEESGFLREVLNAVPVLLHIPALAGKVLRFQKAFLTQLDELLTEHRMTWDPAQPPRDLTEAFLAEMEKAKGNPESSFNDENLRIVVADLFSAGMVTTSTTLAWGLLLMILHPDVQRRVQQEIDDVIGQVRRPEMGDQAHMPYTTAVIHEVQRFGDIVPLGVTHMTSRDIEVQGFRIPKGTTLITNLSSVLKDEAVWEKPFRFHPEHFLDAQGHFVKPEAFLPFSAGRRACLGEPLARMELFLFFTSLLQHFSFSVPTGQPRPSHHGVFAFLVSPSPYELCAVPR
Sequence of Cytochrome P450 2C19 (P33261 whole entry): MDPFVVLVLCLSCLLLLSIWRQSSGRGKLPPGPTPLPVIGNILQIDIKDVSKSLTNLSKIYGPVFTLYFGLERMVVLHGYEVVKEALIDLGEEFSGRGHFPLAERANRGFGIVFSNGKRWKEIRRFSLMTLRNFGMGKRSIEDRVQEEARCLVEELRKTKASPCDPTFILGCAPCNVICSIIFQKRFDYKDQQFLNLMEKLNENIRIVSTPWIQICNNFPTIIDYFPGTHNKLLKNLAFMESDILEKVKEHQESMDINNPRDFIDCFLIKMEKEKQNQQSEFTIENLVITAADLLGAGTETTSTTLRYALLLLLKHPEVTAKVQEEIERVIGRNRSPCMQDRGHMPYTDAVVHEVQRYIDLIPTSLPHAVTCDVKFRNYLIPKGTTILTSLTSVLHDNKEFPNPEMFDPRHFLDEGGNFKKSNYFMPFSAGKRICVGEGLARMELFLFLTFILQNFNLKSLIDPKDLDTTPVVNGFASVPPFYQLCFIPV
Sequence of Cytochrome P450 2C9 (P11712 whole entry): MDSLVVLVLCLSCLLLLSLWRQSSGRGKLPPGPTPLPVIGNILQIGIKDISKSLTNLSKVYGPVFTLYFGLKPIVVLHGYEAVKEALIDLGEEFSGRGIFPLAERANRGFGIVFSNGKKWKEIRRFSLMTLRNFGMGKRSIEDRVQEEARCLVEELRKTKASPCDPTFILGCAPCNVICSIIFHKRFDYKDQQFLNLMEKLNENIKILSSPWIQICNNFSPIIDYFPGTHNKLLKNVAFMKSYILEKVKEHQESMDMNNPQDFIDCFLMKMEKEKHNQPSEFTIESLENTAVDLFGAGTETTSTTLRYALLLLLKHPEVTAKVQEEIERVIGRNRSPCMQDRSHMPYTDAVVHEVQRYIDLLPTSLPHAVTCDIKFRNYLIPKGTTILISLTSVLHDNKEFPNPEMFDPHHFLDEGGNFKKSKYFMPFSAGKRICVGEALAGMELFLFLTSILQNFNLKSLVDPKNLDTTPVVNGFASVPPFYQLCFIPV
T1 sequence (P11940 whole entry): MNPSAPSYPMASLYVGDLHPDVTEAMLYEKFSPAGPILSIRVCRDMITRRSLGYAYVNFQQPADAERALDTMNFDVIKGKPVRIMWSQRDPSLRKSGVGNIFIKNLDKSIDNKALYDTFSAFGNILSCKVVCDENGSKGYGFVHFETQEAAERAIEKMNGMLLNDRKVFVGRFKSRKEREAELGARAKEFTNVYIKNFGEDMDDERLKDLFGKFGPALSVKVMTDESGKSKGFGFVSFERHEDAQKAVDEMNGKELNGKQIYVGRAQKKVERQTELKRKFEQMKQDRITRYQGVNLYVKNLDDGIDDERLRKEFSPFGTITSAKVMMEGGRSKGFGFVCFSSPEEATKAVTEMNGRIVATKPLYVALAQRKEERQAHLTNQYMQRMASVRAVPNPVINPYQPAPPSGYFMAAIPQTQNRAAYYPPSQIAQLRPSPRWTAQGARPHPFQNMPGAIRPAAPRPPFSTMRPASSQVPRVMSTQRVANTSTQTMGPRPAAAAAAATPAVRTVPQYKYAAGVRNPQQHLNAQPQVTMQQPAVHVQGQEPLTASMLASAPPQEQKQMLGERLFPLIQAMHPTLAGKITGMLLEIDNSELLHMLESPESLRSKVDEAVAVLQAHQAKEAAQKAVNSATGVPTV
Sequence of Cytochrome P450 3A4 (P08684 whole entry): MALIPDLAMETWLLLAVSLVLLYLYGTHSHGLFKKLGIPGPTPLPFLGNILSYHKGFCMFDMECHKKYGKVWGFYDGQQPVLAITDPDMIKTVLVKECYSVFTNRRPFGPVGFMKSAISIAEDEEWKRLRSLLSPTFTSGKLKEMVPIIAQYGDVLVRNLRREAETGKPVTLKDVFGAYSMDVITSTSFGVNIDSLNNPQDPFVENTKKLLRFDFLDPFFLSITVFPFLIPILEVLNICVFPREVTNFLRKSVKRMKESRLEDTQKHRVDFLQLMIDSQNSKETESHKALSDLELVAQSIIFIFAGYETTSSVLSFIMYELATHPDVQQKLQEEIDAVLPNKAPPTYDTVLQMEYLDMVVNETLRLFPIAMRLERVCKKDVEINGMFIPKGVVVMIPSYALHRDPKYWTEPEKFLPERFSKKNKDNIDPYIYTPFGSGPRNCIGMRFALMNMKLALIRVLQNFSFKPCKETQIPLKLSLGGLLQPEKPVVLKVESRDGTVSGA

SMILES: Cn1ccnc1P(=S)(c1nccn1C)N1CCOCC1
- IC50 [1]: > 66 µM (inactive)
- IC50 [2]: > 66 µM (inactive)

SMILES: O=C(Nc1ccc(F)cc1)c1cnc(-c2ccccc2)nc1-c1ccccc1
- EC50 [3]: 10 µM (active)
- EC50 [4]: 9.24 µM (active)

SMILES: Nc1c(C(=O)NC2CCCC2)c2nc3ccccc3nc2n1N
- IC50 (H9c2): > 79 µM (inactive)

SMILES: CCN(CC)S(=O)(=O)c1cc(-c2nnc(-c3ccc(Br)cc3)o2)ccc1Cl
- EC50 [3]: 28.1 µM (active)
- EC50 [4]: 21.5 µM (active)

SMILES: Cn1c(SCc2nc3ccccc3n2CCO)nc2ccccc21
- AC50 (Cytochrome P450 2D6): 20 µM (inconclusive)

SMILES: COC(=O)[C@@]1(Cc2ccccc2)[C@H]2c3cc(C(=O)N(C)C)n(Cc4ccccc4)c3C[C@H]2CN1C(=O)c1ccccc1
- AC50 (Cytochrome P450 2D6): 39.8 µM (inconclusive)

SMILES: CSc1nc2ccccc2cc1/C=C(\C#N)c1cccc(C)c1
- AC50 (Cytochrome P450 2D6): 6.31 µM (inconclusive)
- AC50 (Cytochrome P450 2C9): 31.6 µM (inconclusive)
- AC50 (Cytochrome P450 3A4): 25.1 µM (inconclusive)

SMILES: COC(=O)COc1ccc(C(c2c(C)n[nH]c2O)c2c(C)n[nH]c2O)cc1
- EC50 (Protein RecA): 0.377 µM (active)
- AC50 [5]: 0.347 µM (active)

SMILES: CC(C)c1cccc2c([Si](C)(C)C)c3c(nc12)-c1cccc(=O)n1C3
- AC50 (Cytochrome P450 2D6): 20 µM (inconclusive)

SMILES: CCC(=O)Oc1ccc2c(C)cc(=O)oc2c1C
- IC50 (H9c2): 74.2 µM (inactive)

SMILES: Cc1cc[n+](-c2[n-]c(=O)sc2C=NNC(=O)c2ccccc2)cc1
- IC50 [1]: > 66 µM (inactive)
- IC50 [2]: > 66 µM (inactive)

SMILES: COc1cccc(-c2nc(NCc3cnc(C)cn3)c3ccccc3n2)c1
- AC50 (Cytochrome P450 2C19): 25.1 µM (inconclusive)
- AC50 (Cytochrome P450 2D6): 39.8 µM (inconclusive)

SMILES: Cc1cc2cc(CN3C(=O)c4ccccc4C3=O)ccc2n1C
- EC50 [6]: > 60 µM (not active)
- EC50 [7]: < 0.1 µM (active)
- IC50 [1]: 55.2 µM (inactive)
- AC50 (INS1): 13.3 µM (active)
- IC50 [2]: > 66 µM (inactive)

SMILES: O=C(Oc1ccccc1)N1CCC2(CC1)CCN(c1ccncc1)CC2
- AC50 (Cytochrome P450 2D6): 39.8 µM (inconclusive)
- AC50 (Cytochrome P450 2C9): 20 µM (inconclusive)

SMILES: COc1cc(C(=O)Nc2cc3c(cc2N2CCCCC2)n(C)c(=O)n3C)cc(OC)c1OC
- IC50 (H9c2): 8.81 µM (active)

SMILES: COCc1nnc(NC(=O)c2ccc(S(=O)(=O)N3CCCCCC3)cc2)o1
- EC50 [8]: > 160 µM (inactive)

SMILES: CN(C)c1ncc2nc(-c3ccc(Cl)cc3)c(=O)n(C[C@H]3CCCO3)c2n1
- AC50 (Cytochrome P450 2D6): 1.58 µM (inconclusive)

SMILES: CCN1CCN(c2nc3ccccc3nc2C(C#N)C(=O)OC2CCCCC2)CC1 (stereo not drawn)
- AC50 (Cytochrome P450 2C19): 39.8 µM (inconclusive)
- AC50 (Cytochrome P450 2D6): 28.2 µM (inconclusive)
- AC50 (Cytochrome P450 2C9): 39.8 µM (inconclusive)

SMILES: CCOC(=O)CNc1nnc(SCC(=O)OCC)[nH]c1=O
- IC50 [1]: > 66 µM (inactive)
- EC50 (Protein RecA): 0.845 µM (active)
- AC50 [5]: 8.14 µM (active)
- IC50 [2]: > 66 µM (inactive)

SMILES: Cc1n[nH]c2c1C1(CCC3(CC1)OCCO3)C(C#N)=C(N)O2
- EC50 (Protein RecA): > 380 µM (inactive)
- AC50 [5]: > 380 µM (inactive)

SMILES: Cc1noc(C)c1-c1nc(N(C)C)c2ccccc2n1
- AC50 (Cytochrome P450 2C19): 25.1 µM (inconclusive)
- AC50 (Cytochrome P450 2D6): 20 µM (inconclusive)
- AC50 (Cytochrome P450 3A4): 15.8 µM (inconclusive)

SMILES: CCc1cc2c(=O)c(-c3ccc4c(c3)OCCO4)coc2cc1OS(C)(=O)=O
- EC50 [3]: 14.6 µM (active)
- EC50 [4]: 18 µM (active)

SMILES: CSc1ccc(C(c2c(C)n[nH]c2O)c2c(C)n[nH]c2O)cc1
- EC50 (Protein RecA): 0.241 µM (active)
- AC50 [5]: 0.432 µM (active)

SMILES: CCOc1cccc(=O)c2c(C)oc(C)c12
- IC50 [1]: 41.6 µM (inactive)
- IC50 [2]: 37.3 µM (inactive)

SMILES: COc1ccc(COc2cc(-c3cccc(OC)c3)nc3ccc(NC(=O)c4cccnc4)cc23)cc1
- IC50 (H9c2): > 79 µM (inactive)

SMILES: Cc1ccc2c(c1)N(C(=O)CSc1nncn1C)C(C)(C)c1ssc(=S)c1-2
- EC50 (Protein RecA): 10.1 µM (active)
- AC50 [5]: 8.82 µM (active)

SMILES: CCC(C)(C)n1nnnc1CN(Cc1ccco1)Cc1cc2cc3c(cc2nc1O)OCO3
- IC50 [1]: > 66 µM (inactive)
- IC50 [2]: > 66 µM (inactive)

SMILES: CCOC(=O)c1cnc2ccc(C(=O)OC)cc2c1NCCc1ccc(OC)c(OC)c1
- IC50 (H9c2): > 79 µM (inactive)

SMILES: CCC(Sc1nc2cc3c(cc2c(=O)n1Cc1ccco1)OCO3)C(=O)Nc1ccccc1OC (stereo not drawn)
- AC50 (Cytochrome P450 2D6): 5.01 µM (inconclusive)

SMILES: CSc1ccccc1N=C(S)Nc1ccc(S(N)(=O)=O)cc1
- IC50 [1]: > 66 µM (inactive)
- IC50 [2]: > 66 µM (inactive)

SMILES: COC(=O)c1[nH]c2c(c1C)C(=O)CC(c1cc(OC)ccc1OC)C2 (stereo not drawn)
- IC50 (H9c2): > 79 µM (inactive)

SMILES: COCCNc1ncnc2ccc(-c3ccccc3C(F)(F)F)cc12
- AC50 (Cytochrome P450 2D6): 39.8 µM (inconclusive)

SMILES: Cc1ccccc1NC(=O)COC(=O)CCc1nc(O)c2ccccc2n1
- IC50 (H9c2): 10.1 µM (active)

SMILES: CCN(C[C@H]1N[C@@](CC)(C(=O)OC)[C@H]2C(=O)N(Cc3ccccc3)C(=O)[C@@H]12)S(=O)(=O)c1ccc(F)cc1
- IC50 (H9c2): 13.9 µM (active)

SMILES: CC(=O)c1cccc(-c2cnc3c(NC=O)cc(-c4ccc(F)cc4)cn23)c1
- IC50 (H9c2): > 79 µM (inactive)

SMILES: COc1nc(N/N=C/c2cc3c(cc2Br)OCO3)nc(N2CCOCC2)n1
- IC50 (H9c2): > 79 µM (inactive)

SMILES: COc1cc(/C=N/NC(=O)c2ccncc2)ccc1OCC(=O)Nc1ccc(C)c(C)c1
- IC50 (H9c2): > 79 µM (inactive)

SMILES: O=[N+]([O-])c1cc(/C=N/c2cccc3c(O)cccc23)ccc1Cl
- EC50 (Protein RecA): 8.76 µM (active)
- AC50 [5]: 46.8 µM (active)

SMILES: COc1ccc(C(=O)c2ccccc2)c(O)c1 [OXYBENZONE]
- AC50 (Cytochrome P450 2C19): 0.398 µM (inconclusive)
- AC50 (Cytochrome P450 2D6): 12.6 µM (inconclusive)
